Residues, ends and D or L forms follow the SMILES beside them.
Legend:
[1] = tested on: proteins from brain tumor extracts; experiment: CGKRK-binding proteins in glioblastoma tumor extracts (affinity matrix); details: mass spectrometry
From the text: Proteins from brain tumor extracts were bound to insolubilized (SulfoLink Resin; Pierce Biotechnology) CGKRK peptide. Proteins were eluted from the affinity matrix with either CGKRK peptide or with CREKA (SEQ ID NO:92) peptide (negative control). Silver-stained gels were used to show the proteins eluted with CGKRK and CREKA (SEQ ID NO:92). […] The bands in the CGKRK eluate were identified by mass spectrometry as the proteins listed.

purified mitochondria = experiment: Peptide/phage binding to purified mitochondria; design: species or system mouse; details: increasing concentrations of unlabeled peptide
Procedure: Isolation of mitochondria and peptide/phage binding. Mitochondria were isolated from livers of Balb/c mice using differential centrifugation with buffers from a Pierce mitochondrial isolation kit for tissue according to the manufacture's instruction (Pierce Biotechnology, Rockford, Ill.). To test the binding of the CGKRK peptide to mitochondria, purified mitochondria were pre-incubated with various concentrations of non-labeled CGKRK or control peptide (CREKA; SEQ ID NO:92) for 30 min 4° C. FAM-CGKRK was then added and incubated for an additional 1 hour. The binding of the FAM peptide was quantified by fluorescence. In phage binding assays, purified mitochondria were suspended in 10 ml DMEM supplemented with 1% BSA, and incubated with 5×10^8 plaque-forming units (pfu) of peptide-displaying phage, overnight at 4° C. The mitochondria were washed 3 times with DMEM/BSA, the phage were collected with lysogeny broth containing 1% NP-40, and quantified by plaque assay.

GBM tumors = experiment: In vivo peptide homing; design: species or system mouse; details: 200 μg Rd-labeled peptide i.v., 3 hours, 005 tumor mice
Procedure: In vivo peptide homing. […] Rhodamine-labeled CGKRK (200 μg) was intravenously injected into the mice and allowed to circulate for 3 hours. The mice were perfused with PBS through the heart under anesthesia, and tissues were collected and processed for fluorescence analysis.

[2] = tested on: mitochondria in U87 cells; experiment: Live cell imaging, co-localization with mitochondrial marker; type: cell-based, human
Procedure: (§1) Cell proliferation assay and imaging. The MTT [3-[4,5-dimethylthazol-2-yl]-2,5-diphenyl tetrazolium-bromide] assay (Molecular Probes, Eugene, Oreg.) was used to quantify cell proliferation. Cells were seeded in complete medium into 96-well plates (5×10^3 cells/well), and allowed to attach overnight at 37° C. in a humidified 5% CO2 atmosphere. The culture media was then removed and various concentrations of peptides or NWs were added. After 48, and 72 hours, 10 μL of the MTT reagent (5 mg/mL in PBS) was added to each well. The medium was removed from cells after 3 hours, and […] of DMSO:MEOH (1:1 v/v) were added to each well. The plates were read at a wavelength of 595 nm. For live cell imaging, cells seeded on glass-bottom plates (Willco, Amsterdam, Netherlands), and 24 hours later, the cells were washed and incubated with FAM-labeled peptides or NWs for 45 min at 37° C. The cells were then rinsed three times with PBS and incubated for an additional 15 min at 37° C. with […] MitoTracker Red (Molecular Probes, Eugene, Oreg.) followed by nuclear staining with Hoechst 33342 DNA dyes (Molecular Probe, Eugene, Oreg.) for 12 min. The cells were analyzed with Fluoview FV 500 confocal microscopy (Olympus America, Center Valley, Pa.).

mitochondria in HUVEC = experiment: as above; type: cell-based, human
Procedure: as §1

Row | Compound | co-localization with mitochondria [2] | co-localization with mitochondria (mitochondria in HUVEC) | other results
1 | CREKA: Unrelated control peptide, SEQ ID NO:92 (clot binding/homing peptide) | – | – | proteins eluted from CGKRK affinity matrix [1]: failed to elute any visible protein bands; inhibition of FAM-CGKRK binding to mitochondria by unlabeled peptide (purified mitochondria): not
2 | N=C(N)NCCC[C@H](NC(=O)[C@H](CCCCN)NC(=O)CNC(=O)[C@@H](N)CS)C(=O)N[C@@H](CCCCN)C(=O)O [CGKRK, Cys-Gly-Lys-Arg-Lys] (H-CGKRK-OH) | – | – | peptide in normal tissues (GBM tumors): not in normal tissues; peptide in normal tissues (GBM tumors; listed as CGKRK peptide): appeared in kidney but not in heart, pancreas, liver, lung, or spleen
3 | D[KLAKLAK]2: α-helical amphipathic pro-apoptotic peptide, SEQ ID NO:3 (KLAKLAKKLAKLAK; D-amino acids; membrane perturbing molecule) [reference compound] | did not | did not | –
4 | CC(C)C[C@@H](NC(=O)[C@H](N)CCCCN)C(=O)N[C@H](C)C(=O)N[C@H](CCCCN)C(=O)N[C@H](CC(C)C)C(=O)N[C@H](C)C(=O)N[C@H](CCCCN)C(=O)N[C@H](CCCCN)C(=O)N[C@H](CC(C)C)C(=O)N[C@H](C)C(=O)N[C@H](CCCCN)C(=O)N[C@H](CC(C)C)C(=O)N[C@H](C)C(=O)N[C@H](CCCCN)C(=O)N[C@@H](CS)C(=O)NCC(=O)N[C@@H](CCCCN)C(=O)N[C@@H](CCCNC(=N)N)C(=O)N[C@@H](CCCCN)C(=O)O [CGKRK-D[KLAKLAK]2 peptide] | colocalized with mitochondria | colocalized with mitochondria | –

Source: patent US20170246236A1, “METHODS AND COMPOSITIONS FOR ENHANCED DELIVERY OF COMPOUNDS” (Sanford Burnham Prebys Medical Discovery Institute, priority 2010, published 2017)
